pIC50: −log10 of the molar value.
System: 931267-113-T-J1-PDC multicell spheroid viability
Assay: Anticancer human tumor 931267-113-T-J1-PDC patient-derived colon adenocarcinoma cell line growth inhibition [PI3K]
Details: for pIC50: curve of first compound; for viability, T/C: stronger effect = lower value
Outline: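 Agents were dosed from a top concentration near clinical Cmax (otherwise 10 microM) in half-log decrements, alone or combined with PI3K inhibitors. The spheroids contain tumor cells plus endothelial (HUVEC) and MSC stroma; viability is measured.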

[1] = second compound 0.0316 µM, first compound 0.0316 µM
[2] = second compound 0.0316 µM, first compound 0.1 µM
[3] = second compound 0.1 µM, first compound 0.0316 µM
[4] = second compound 0.1 µM, first compound 0.1 µM
[5] = second compound 0.316 µM, first compound 0.0316 µM
[6] = second compound 0.316 µM, first compound 0.1 µM
[7] = second compound 1 µM, first compound 0.0316 µM
[8] = second compound 1 µM, first compound 0.1 µM
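Further: viability read 7 days after compound addition.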

C#Cc1c(F)ccc2cc(O)cc(-c3ncc4c(N5CC6CCC(C5)N6)nc(OCC56CCCN5CC(F)C6)nc4c3F)c12 (centres undefined) + Cc1nc(NC(=O)N2CCCC2C(N)=O)sc1-c1ccnc(C(C)(C)C(F)(F)F)c1
pIC50 (second compound 0.0316 µM): 6.39
pIC50 (second compound 0.1 µM): 6.33
pIC50 (second compound 0.316 µM): 6.74
pIC50 (second compound 1 µM): 6.90
pIC50 (second compound 3.16 µM): 6.98
pIC50 (second compound 10 µM): > 7.50
viability, T/C [1]: 80.2%
viability, T/C [2]: 71.2%
viability, T/C (second compound 0.0316 µM, first compound 0.316 µM): 50.4%
viability, T/C (second compound 0.0316 µM, first compound 1 µM): 40%
viability, T/C (second compound 0.0316 µM, first compound 3.16 µM): 29.8%
viability, T/C (second compound 0.0316 µM, first compound 10 µM): 23.8%
viability, T/C [3]: 84.3%
viability, T/C [4]: 71.8%
viability, T/C (second compound 0.1 µM, first compound 0.316 µM): 54.1%
viability, T/C (second compound 0.1 µM, first compound 1 µM): 41.4%
viability, T/C (second compound 0.1 µM, first compound 3.16 µM): 25.6%
viability, T/C (second compound 0.1 µM, first compound 10 µM): 19.4%
viability, T/C [5]: 72.6%
viability, T/C [6]: 59.2%
viability, T/C (second compound 0.316 µM, first compound 0.316 µM): 41.4%
viability, T/C (second compound 0.316 µM, first compound 1 µM): 30.9%
viability, T/C (second compound 0.316 µM, first compound 3.16 µM): 26.3%
viability, T/C (second compound 0.316 µM, first compound 10 µM): 15.3%
viability, T/C [7]: 67.3%
viability, T/C [8]: 54.3%
viability, T/C (second compound 1 µM, first compound 0.316 µM): 37.2%
viability, T/C (second compound 1 µM, first compound 1 µM): 28.3%
viability, T/C (second compound 1 µM, first compound 3.16 µM): 21%
viability, T/C (second compound 1 µM, first compound 10 µM): 13.7%
viability, T/C (second compound 3.16 µM, first compound 0.0316 µM): 67%
viability, T/C (second compound 3.16 µM, first compound 0.1 µM): 51.9%
viability, T/C (second compound 3.16 µM, first compound 0.316 µM): 29.4%
viability, T/C (second compound 3.16 µM, first compound 1 µM): 21.2%
viability, T/C (second compound 3.16 µM, first compound 3.16 µM): 15.8%
viability, T/C (second compound 3.16 µM, first compound 10 µM): 11.5%
viability, T/C (second compound 10 µM, first compound 0.0316 µM): 49.1%
viability, T/C (second compound 10 µM, first compound 0.1 µM): 38.7%
viability, T/C (second compound 10 µM, first compound 0.316 µM): 25.2%
viability, T/C (second compound 10 µM, first compound 1 µM): 18.8%
viability, T/C (second compound 10 µM, first compound 3.16 µM): 16.9%
viability, T/C (second compound 10 µM, first compound 10 µM): 9.04%

CC(C)n1nc(-c2ccc3oc(N)nc3c2)c2c(N)ncnc21 + CC(Nc1ccc2c(c1)OCCn1cc(N3C(=O)OCC3C(F)F)nc1-2)C(N)=O
pIC50 (second compound 0.00316 µM): 7.10
pIC50 (second compound 0.01 µM): < 7.00
pIC50 (second compound 0.0316 µM): 7.18
pIC50 (second compound 0.1 µM): 7.22
pIC50 (second compound 0.316 µM): 7.31
pIC50 (second compound 1 µM): 7.42
viability, T/C (second compound 0.00316 µM, first compound 0.000316 µM): 94.6%
viability, T/C (second compound 0.00316 µM, first compound 0.001 µM): 98%
viability, T/C (second compound 0.00316 µM, first compound 0.00316 µM): 83%
viability, T/C (second compound 0.00316 µM, first compound 0.01 µM): 91.5%
viability, T/C (second compound 0.00316 µM, first compound 0.0316 µM): 80.2%
viability, T/C (second compound 0.00316 µM, first compound 0.1 µM): 42.5%
viability, T/C (second compound 0.01 µM, first compound 0.000316 µM): 104%
viability, T/C (second compound 0.01 µM, first compound 0.001 µM): 101%
viability, T/C (second compound 0.01 µM, first compound 0.00316 µM): 86%
viability, T/C (second compound 0.01 µM, first compound 0.01 µM): 81.1%
viability, T/C (second compound 0.01 µM, first compound 0.0316 µM): 68%
viability, T/C (second compound 0.01 µM, first compound 0.1 µM): 52.2%
viability, T/C (second compound 0.0316 µM, first compound 0.000316 µM): 97.7%
viability, T/C (second compound 0.0316 µM, first compound 0.001 µM): 104%
viability, T/C (second compound 0.0316 µM, first compound 0.00316 µM): 101%
viability, T/C (second compound 0.0316 µM, first compound 0.01 µM): 90%
viability, T/C [1]: 71%
viability, T/C [2]: 38.8%
viability, T/C (second compound 0.1 µM, first compound 0.000316 µM): 89.4%
viability, T/C (second compound 0.1 µM, first compound 0.001 µM): 83.8%
viability, T/C (second compound 0.1 µM, first compound 0.00316 µM): 93%
viability, T/C (second compound 0.1 µM, first compound 0.01 µM): 77.7%
viability, T/C [3]: 64.1%
viability, T/C [4]: 39.6%
viability, T/C (second compound 0.316 µM, first compound 0.000316 µM): 82.7%
viability, T/C (second compound 0.316 µM, first compound 0.001 µM): 82.7%
viability, T/C (second compound 0.316 µM, first compound 0.00316 µM): 69%
viability, T/C (second compound 0.316 µM, first compound 0.01 µM): 70.8%
viability, T/C [5]: 59.2%
viability, T/C [6]: 36.7%
viability, T/C (second compound 1 µM, first compound 0.000316 µM): 72.5%
viability, T/C (second compound 1 µM, first compound 0.001 µM): 69.3%
viability, T/C (second compound 1 µM, first compound 0.00316 µM): 70.6%
viability, T/C (second compound 1 µM, first compound 0.01 µM): 59%
viability, T/C [7]: 55.9%
viability, T/C [8]: 31.8%
